Measurements published in patent publication US20170128459A1, “PHARMACEUTICAL COMPOSITION CONTAINING SIRT2 INHIBITOR” (Industrial Cooperation Foundation Chonbuk National …, priority 2014, published 2017).

Assays:
[1] = test system: mouse proximal tubule cells; test: Cell damage caused by cisplatin (number of adhesion cells, microscopy); assay type: cell-based
Protocol: To confirm if an SIRT2 inhibitor has an effect of inhibiting cell damage caused by cisplatin, the effects of AGK2 and AK-1, which are SIRT2 inhibitors, when the mouse proximal tubule cells were treated with cisplatin were examined. Specifically, mouse proximal tubule cells were treated with AGK2 (10 μM) and AK-1 (10 μM), which are SIRT2 inhibitors, 30 minutes prior to being treated with cisplatin (20 μg/ml) for 48 hours, and the cells were visualized by a Zeiss Z1 microscope.

[2] = test system: mouse proximal tubule cells; test: Cell proliferation test (XTT); assay type: cell-based; conditions: 24 hours, 1% FBS
Protocol: Specifically, the cell proliferation test was performed by treating mouse proximal tubule cells with trypsin, the cells were put in a 96-well plate at 1×10^3 cells for each well, cultured for 24 hours at 37° C., the culture medium was removed, and each of AGK2, AK-1, cisplatin, cisplatin+AGK2, and cisplatin+AK-1 was treated with a culture medium containing 1% FBS. After culturing for 24 hours at 37° C., the degree of cell proliferation was measured using a cell proliferation kit (Cell proliferation Kit II, XTT, Roche, Mannheim, Germany). As cells proliferate, the amount of color-developing material of mitochondria within cells increases, and thus the absorbance increases. Therefore, the proliferation of the mouse proximal tubule cells was determined based on the absorbance, and the results are provided in FIG. 34.

[3] = test system: CXCL2; test: CXCL2 mRNA expression by qRT-PCR in LPS-treated mouse proximal tubule cells; assay type: cell-based; conditions: AK-1 10 μM 30 minutes prior to 1-hour LPS (10 μg/ml); compared with LPS-increased expression
Protocol: (§1) Mouse proximal tubule cells, which were donated by Dr Lloyd G. Cantley (Yale University School of Medicine, New Haven, Conn., US), were prepared by culturing, in an α-MEM medium containing added fetal bovine serum at 10% (vol/vol), under conditions including a humidified atmospheric condition of 5% CO2 and 95% air and a temperature condition of 37° C.
(§2) To remove the SIRT2 gene from the cells, siRNA (100 pmol, Dharmacon ON-TARGETplus SMARTpool, Dharmacon Inc., CO, US) and 10 μl Lipofectamine® 2000 (Invitrogen™, Carlsbad, Calif., US) were diluted in an Opti-MEM medium for the cell treatment, and, 7 hours later, the cells were transferred into a cell culture medium for cell culture. 2 days after the initiation of the cell culture, the cells were collected and a decrease in an SIRT2 protein was observed therefrom.
1, 3, and 6 hours after the treatment with the LPS and the CB following the SIRT2 siRNA treatment, the cell culture medium, RNA, and proteins were collected to perform quantitative real-time PCR (qRT-PCR) and an enzyme linked immunosorbent assay. […]
(§3) Mouse proximal tubule cells were treated with AK-1 (10 μM), which is an SIRT2 inhibitor, 30 minutes prior to a 1-hour treatment with an LPS (10 μg/ml). The cells were collected and CXCL2 and CCL2 mRNA expression levels thereof were determined through qRT-PCR.

[4] = test system: CCL2; test: CCL2 mRNA expression by qRT-PCR in LPS-treated mouse proximal tubule cells; assay type: cell-based; conditions: AK-1 10 μM 30 minutes prior to 1-hour LPS (10 μg/ml); compared with LPS-increased expression
Protocol: as §1, §2
1, 3, and 6 hours after the treatment with the LPS and the CB following the SIRT2 siRNA treatment, the cell culture medium, RNA, and proteins were collected to perform quantitative real-time PCR (qRT-PCR) and an enzyme linked immunosorbent assay.
The CCL2 expression pattern was observed by the method of Example 4.
as §3

[5] = test system: acetyl p53; test: Western blot of acetyl p53 in kidney tissues after cisplatin; assay type: in vivo; conditions: kidney of mouse having SIRT2 treated with cisplatin
Protocol: (§4) Generally, kidney injuries caused by cisplatin are affected by apoptosis. To determine the effect of SIRT2 gene knockout on controlling apoptosis caused by cisplatin, the acetylation of caspase-3 and p53 was observed through western blotting.
(§5) Kidney tissues were obtained by the method of the above Example 9-2 and then were homogenized to extract proteins therefrom, and the caspase-3 and acetyl p53 protein expression patterns were determined using caspase-3 and acetyl p53 antibodies (Cell Signaling Technology, Danvers, Mass. US). The same blots were peeled off to determine the exact amount of proteins using actin (Sigma-Aldrich Co. LLC., St Louis, Mo., US) and p53 (Cell Signaling Technology, Inc.).

[6] = test system: ICAM-1; test: Western blot of ICAM-1 in kidney tissues after cisplatin; assay type: in vivo, mouse; conditions: kidney tissues of WT mice administered cisplatin
Protocol: (§6) An investigation was performed to see if the expression of ICAM-1 and VCAM-1 genes, which are molecules related to inflammatory response, in an experimental group administered cisplatin is regulated by an SIRT2 gene. Western blotting was performed by the method of the above Example 11, using ICAM-1 (Santa Cruz Biotechnology, Santa Cruz, Calif., US) and VCAM-1 (Santa Cruz Biotechnology, Santa Cruz, Calif., US) antibodies.

[7] = test system: VCAM-1; test: Western blot of VCAM-1 in kidney tissues after cisplatin; assay type: in vivo, mouse; conditions: kidney tissues of WT mice administered cisplatin
Protocol: as §6

[8] = Survival rate after cisplatin administration; assay type: in vivo, mouse; conditions: control group (SIRT2+/+) administered cisplatin
Description: Based on the result, it can be seen that the knocking out an SIRT2 gene inhibits kidney injuries caused by cisplatin.

[9] = test system: caspase-3; test: Western blot of caspase-3 in kidney tissues after cisplatin; assay type: in vivo, mouse; conditions: kidney tissues of WT mice administered cisplatin
Protocol: as §4, §5

[10] = SIRT2 inhibitor 10 μM 30 minutes prior to cisplatin 20 μg/ml for 48 hours, compared with cisplatin alone
[11] = used together with cisplatin, compared with cisplatin alone

Row | SMILES | number of adhesion cells [1, 10] | cell proliferation (XTT absorbance) [2, 11] | CXCL2 mRNA expression level [3] | CCL2 mRNA expression level [4] | p53 acetylation [5] | number of adhesion cells ([1]; cisplatin 20 μg/ml for 48 hours alone) | cell proliferation (XTT absorbance) ([2]; cisplatin alone) | ICAM-1 expression [6] | VCAM-1 expression [7] | survival [8] | cleaved caspase-3 expression [9]
1 | O=C(Nc1cccc2ncccc12)/C(O)=C/c1ccc(-c2cc(Cl)ccc2Cl)o1 [AGK2] | significantly increased | significantly increased | – | – | – | – | – | – | – | – | –
2 | O=C(Nc1cccc([N+](=O)[O-])c1)c1cccc(S(=O)(=O)N2CCCCCC2)c1 [AK-1] | significantly increased | significantly increased | decrease | decrease | – | – | – | – | – | – | –
3 | N.N.[Cl][Pt][Cl] [cisplatin, cis-diammine-dichloroplatinum [II]] | – | – | – | – | increased | decreased | decreased | increased | increased | all mice died in 6 days | increased
